Reference: PubChem BioAssay AID328 (DTP/NCI, 2004)
Where “and” joins values, the source holds several entries; their conditions need not be identical. Identical values can stand only once. Inconclusive results and toxic doses are left out.

Tested on: BDF1 mice, P388 leukemia ip, median survival T/C
Test: NCI In Vivo Anticancer Drug Screen. Data for tumor model P388 Leukemia (intraperitoneal) in B6D2F1 (BDF1) mice
Details: endpoint: median survival time, higher = longer survival
Summary of the method: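 Steps: implant the tumour, treat one group with compound and another with vehicle, record survival, then divide treated by control.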

[1] = dose: 100.0 mg/kg/injection, schedule: Q04DX003 (ip), vehicle: saline with Tween-80
[2] = dose: 200.0 mg/kg/injection, schedule: Q04DX003 (ip), vehicle: saline with Tween-80
[3] = dose: 400.0 mg/kg/injection, schedule: Q04DX003 (ip), vehicle: saline with Tween-80
[4] = dose: 50.0 mg/kg/injection, schedule: Q01DX009 (ip), vehicle: saline with Tween-80
[5] = dose: 100.0 mg/kg/injection, schedule: Q01DX009 (ip), vehicle: saline with Tween-80
[6] = dose: 200.0 mg/kg/injection, schedule: Q01DX009 (ip), vehicle: saline with Tween-80
[7] = dose: 100.0 mg/kg/injection, schedule: Q04DX003 (ip), vehicle: Klucel (hydroxypropylcellulose) (HPC)
[8] = dose: 200.0 mg/kg/injection, schedule: Q04DX003 (ip), vehicle: Klucel (hydroxypropylcellulose) (HPC)
[9] = dose: 400.0 mg/kg/injection, schedule: Q04DX003 (ip), vehicle: Klucel (hydroxypropylcellulose) (HPC)
[10] = dose: 100.0 mg/kg/injection, schedule: Q01DX009 (ip), vehicle: Klucel (hydroxypropylcellulose) (HPC)
[11] = dose: 400.0 mg/kg/injection, schedule: Q01DX009 (ip), vehicle: Klucel (hydroxypropylcellulose) (HPC)
[12] = dose: 200.0 mg/kg/injection, schedule: Q01DX009 (ip), vehicle: Klucel (hydroxypropylcellulose) (HPC)
[13] = dose: 50.0 mg/kg/injection, schedule: Q04DX003 (ip), vehicle: saline with Tween-80

Q: `CCOC(=O)c1ccc(OC(=O)Nc2ccccc2OC)cc1` was tested. Which T/C [1] did it give?
A: 91 % of control

Q: What about the T/C [2] of the same compound?
A: 108 % of control

Q: And the T/C [3]?
A: 108 % of control

Q: `CCC(c1ccccc1)C(C(=O)O)C(=O)O` (centres undefined) was tested. Which T/C (dose: 100.0 mg/kg/injection, schedule: Q04DX002 (ip), vehicle: saline with Tween-80) did it give?
A: 110 % of control

Q: And the T/C (dose: 200.0 mg/kg/injection, schedule: Q04DX002 (ip), vehicle: saline with Tween-80)?
A: 101 % of control

Q: And the T/C (dose: 400.0 mg/kg/injection, schedule: Q04DX002 (ip), vehicle: saline with Tween-80)?
A: 103 % of control

Q: With `CCCCCOC(CN)C(Cl)(Cl)Cl` (centres undefined) as the compound, how does the T/C (dose: 25.0 mg/kg/injection, schedule: Q01DX009 (ip), vehicle: saline) read?
A: 115 % of control

Q: What about the T/C (dose: 33.0 mg/kg/injection, schedule: Q01DX009 (ip), vehicle: saline) of the same compound?
A: 100 % of control and 118 % of control

Q: And the T/C (dose: 50.0 mg/kg/injection, schedule: Q01DX009 (ip), vehicle: saline)?
A: 113 % of control and 122 % of control

Q: What about the T/C (dose: 75.0 mg/kg/injection, schedule: Q01DX009 (ip), vehicle: saline) of the same compound?
A: 109 % of control

Q: Which T/C (dose: 10.0 mg/kg/injection, schedule: Q01DX010 (ip), vehicle: saline) does the source give for `CC1C(=O)OCC2=CCN3CCC(OC(=O)C(C)C1(C)O)C23` (centres undefined) here?
A: 100 % of control

Q: And the T/C (dose: 20.0 mg/kg/injection, schedule: Q01DX010 (ip), vehicle: saline)?
A: 105 % of control

Q: What about the T/C (dose: 25.0 mg/kg/injection, schedule: Q01DX010 (ip), vehicle: carboxymethylcellulose (CMC)) of the same compound?
A: 122 % of control

Q: And the T/C (dose: 40.0 mg/kg/injection, schedule: Q01DX010 (ip), vehicle: saline)?
A: 150 % of control

Q: And the T/C (dose: 50.0 mg/kg/injection, schedule: Q01DX010 (ip), vehicle: carboxymethylcellulose (CMC))?
A: 111 % of control

Q: What about the T/C (dose: 100.0 mg/kg/injection, schedule: Q01DX010 (ip), vehicle: carboxymethylcellulose (CMC)) of the same compound?
A: 88 % of control

Q: Which T/C (dose: 100.0 mg/kg/injection, schedule: Q01DX001 (ip), vehicle: saline with Tween-80) does the source give for `CCN(C(=O)Nc1ccccc1Cl)c1ccccc1` here?
A: 95 % of control

Q: And the T/C (dose: 200.0 mg/kg/injection, schedule: Q01DX001 (ip), vehicle: saline with Tween-80)?
A: 100 % of control

Q: And the T/C (dose: 400.0 mg/kg/injection, schedule: Q01DX001 (ip), vehicle: saline with Tween-80)?
A: 100 % of control

Q: Which results are given for `O=C(O)CCS(=O)(=O)CCC(=O)O`?
A: T/C [4]: 100 % of control; T/C [5]: 100 % of control; T/C [6]: 100 % of control

Q: With `O=[N+]([O-])c1ccc(C(Br)C(Br)c2ccccc2Cl)cc1` (centres undefined) as the compound, how does the T/C [7] read?
A: 100 % of control

Q: And the T/C [8]?
A: 100 % of control

Q: What about the T/C [9] of the same compound?
A: 100 % of control

Q: For `COC1OC(COS(=O)(=O)c2ccc(C)cc2)C2OC(C)(C)OC12` (centres undefined), which T/C (dose: 50.0 mg/kg/injection, schedule: Q01DX009 (ip), vehicle: Klucel (hydroxypropylcellulose) (HPC)) is on record?
A: 104 % of control

Q: And the T/C [10]?
A: 90 % of control

Q: What about the T/C [11] of the same compound?
A: 90 % of control

Q: Which results are given for `O=C1NC(=O)N(c2ccccc2)C(=O)/C1=C/c1ccccc1`?
A: T/C (dose: 50.0 mg/kg/injection, schedule: Q01DX001 (ip), vehicle: saline sonified): 110 % of control; T/C (dose: 100.0 mg/kg/injection, schedule: Q01DX001 (ip), vehicle: saline sonified): 105 % of control; T/C (dose: 200.0 mg/kg/injection, schedule: Q01DX001 (ip), vehicle: saline sonified): 100 % of control

Q: With `Cc1nn(C)c2ccc([N+](=O)[O-])cc12` as the compound, how does the T/C [10] read?
A: 118 % of control

Q: And the T/C [12]?
A: 104 % of control

Q: And the T/C [11]?
A: 122 % of control

Q: Which results are given for `O=C(NC(C(=O)O)c1ccccc1)OCc1ccccc1` (centres undefined)?
A: T/C [1]: 104 % of control; T/C [2]: 109 % of control; T/C [3]: 100 % of control

Q: `Nc1ncnc2c1ncn2C(C=O)OC(C=O)CO` (centres undefined) was tested. Which T/C (dose: 0.88 mg/kg/injection, schedule: Q01DX009 (ip), vehicle: saline) did it give?
A: 106 % of control

Q: What about the T/C (dose: 1.0 mg/kg/injection, schedule: Q01DX009 (ip), vehicle: carboxymethylcellulose (CMC)) of the same compound?
A: 119 % of control

Q: What about the T/C (dose: 1.33 mg/kg/injection, schedule: Q01DX009 (ip), vehicle: saline) of the same compound?
A: 116 % of control

Q: And the T/C (dose: 2.0 mg/kg/injection, schedule: Q01DX009 (ip), vehicle: saline)?
A: 119 % of control

Q: What about the T/C (dose: 2.5 mg/kg/injection, schedule: Q04DX003 (ip), vehicle: carboxymethylcellulose (CMC)) of the same compound?
A: 113 % of control

Q: And the T/C (dose: 3.3 mg/kg/injection, schedule: Q01DX009 (ip), vehicle: saline)?
A: 171 % of control

Q: What about the T/C (dose: 4.0 mg/kg/injection, schedule: Q01DX009 (ip), vehicle: carboxymethylcellulose (CMC)) of the same compound?
A: 158 % of control

Q: And the T/C (dose: 5.0 mg/kg/injection, schedule: Q01DX009 (ip), vehicle: saline)?
A: 261 % of control

Q: And the T/C (dose: 5.0 mg/kg/injection, schedule: Q04DX003 (ip), vehicle: carboxymethylcellulose (CMC))?
A: 122 % of control

Q: And the T/C (dose: 5.56 mg/kg/injection, schedule: Q01DX009 (ip), vehicle: saline)?
A: 150 % of control

Q: And the T/C (dose: 7.5 mg/kg/injection, schedule: Q01DX009 (ip), vehicle: saline)?
A: 152 % of control

Q: And the T/C (dose: 8.0 mg/kg/injection, schedule: Q01DX009 (ip), vehicle: carboxymethylcellulose (CMC))?
A: 97 % of control

Q: And the T/C (dose: 8.33 mg/kg/injection, schedule: Q01DX009 (ip), vehicle: saline)?
A: 161 % of control

Q: And the T/C (dose: 10.0 mg/kg/injection, schedule: Q04DX003 (ip), vehicle: carboxymethylcellulose (CMC))?
A: 153 % of control

Q: What about the T/C (dose: 12.5 mg/kg/injection, schedule: Q01DX009 (ip), vehicle: saline) of the same compound?
A: 209 % of control

Q: And the T/C (dose: 16.0 mg/kg/injection, schedule: Q01DX009 (ip), vehicle: carboxymethylcellulose (CMC))?
A: 184 % of control

Q: What about the T/C (dose: 18.7 mg/kg/injection, schedule: Q01DX009 (ip), vehicle: saline) of the same compound?
A: 152 % of control

Q: And the T/C (dose: 20.0 mg/kg/injection, schedule: Q04DX003 (ip), vehicle: carboxymethylcellulose (CMC))?
A: 160 % of control

Q: And the T/C (dose: 40.0 mg/kg/injection, schedule: Q04DX003 (ip), vehicle: carboxymethylcellulose (CMC))?
A: 188 % of control

Q: What about the T/C (dose: 80.0 mg/kg/injection, schedule: Q04DX003 (ip), vehicle: carboxymethylcellulose (CMC)) of the same compound?
A: 179 % of control

Q: For `CCN(CC)CCCCCCNc1cc(OC)c(OC)c2c(C)ccnc12`, which T/C (dose: 3.13 mg/kg/injection, schedule: Q01DX009 (ip), vehicle: saline) is on record?
A: 102 % of control

Q: What about the T/C (dose: 6.25 mg/kg/injection, schedule: Q01DX009 (ip), vehicle: saline) of the same compound?
A: 109 % of control

Q: Which results are given for `CC(C)(C)C(CO)CO`?
A: T/C [4]: 93 % of control; T/C [5]: 100 % of control; T/C [6]: 100 % of control

Q: With `Cc1ccc(S(=O)(=O)F)c(Cl)c1` as the compound, how does the T/C (dose: 50.0 mg/kg/injection, schedule: Q01DX009 (ip), vehicle: other) read?
A: 91 % of control

Q: And the T/C [13]?
A: 100 % of control

Q: What about the T/C (dose: 100.0 mg/kg/injection, schedule: Q01DX009 (ip), vehicle: other) of the same compound?
A: 91 % of control

Q: And the T/C [1]?
A: 104 % of control

Q: And the T/C (dose: 200.0 mg/kg/injection, schedule: Q01DX009 (ip), vehicle: other)?
A: 91 % of control

Q: What about the T/C [2] of the same compound?
A: 109 % of control

Q: With `C[n+]1c(-c2cc(Cl)cc(Cl)c2)c2cc([N+](=O)[O-])ccc2c2ccccc21` as the compound, how does the T/C (dose: 50.0 mg/kg/injection, schedule: Q04DX003 (ip), vehicle: water) read?
A: 120 % of control

Q: And the T/C (dose: 200.0 mg/kg/injection, schedule: Q04DX003 (ip), vehicle: water)?
A: 122 % of control

Q: And the T/C (dose: 400.0 mg/kg/injection, schedule: Q04DX003 (ip), vehicle: water)?
A: 110 % of control

Q: `Cc1ccc2c(c1)NC(c1ccc(C(N)=S)cc1)N2` (centres undefined) was tested. Which T/C (dose: 25.0 mg/kg/injection, schedule: Q04DX003 (ip), vehicle: saline with Tween-80) did it give?
A: 97 % of control

Q: What about the T/C [13] of the same compound?
A: 88 % of control

Q: And the T/C [1]?
A: 87 % of control

Q: Which results are given for `NC(=S)c1cn(C2OC(CO)C(O)C2O)c2ncnc(N)c12` (centres undefined)?
A: T/C (dose: 3.3 mg/kg/injection, schedule: Q01DX009 (ip), vehicle: saline with Tween-80): 166 % of control; T/C (dose: 5.0 mg/kg/injection, schedule: Q01DX009 (ip), vehicle: saline with Tween-80): 100 % of control

Q: `CC(=O)O[C@]1(C(C)=O)CC[C@H]2[C@@H]3C=C(Cl)C4=CC(=O)[C@@H]5C[C@@H]5[C@]4(C)[C@H]3CC[C@@]21C` was tested. Which T/C [10] did it give?
A: 95 % of control

Q: What about the T/C [7] of the same compound?
A: 104 % of control

Q: What about the T/C [12] of the same compound?
A: 91 % of control

Q: What about the T/C [8] of the same compound?
A: 108 % of control

Q: What about the T/C [9] of the same compound?
A: 108 % of control

Q: `CSc1ccc(OC(=O)Nc2ccccc2F)cc1` was tested. Which T/C [13] did it give?
A: 90 % of control

Q: And the T/C [1]?
A: 100 % of control

Q: And the T/C [2]?
A: 109 % of control
